Test results reported in patent US7718664B2, “Anti-itching agent” (Toray Industries, Inc., priority 2004, dated 2010).
Counter-ions that a name gives are not always drawn.

Legend:
[1] = in vivo; cited from earlier work
Male ddY mice = assay: Inhibitory effect of scratching behavior induced by Substance-P; type: in vivo, mouse; conditions: test drug sc 30 minutes before intradermal Substance-P, scratching counted for 30 minutes
Protocol: Male ddY mice were purchased when they were 4 weeks old, and used in the experiments when they became 5 weeks old after acclimation. One day before experiment, each mouse had hair on the rostral back skin clipped with a hair clipper. Each of test drugs was dissolved in 10% DMSO. Either the test drug or vehicle was administered subcutaneously into the rostral back of the mouse, and 30 minutes later, Substance-P (250 nmom/site) dissolved in PBS (phosphate buffered saline) was administered intradermally into the hair-clipped skin at a dose of about 50 μL. Immediately thereafter, each mouse was put into a cage for observation (10*14*22 cm), and the subsequent behavior of each mouse was recorded by an unattended video camera for 30 minutes. The video tape was replayed, and the number of times that the mouse scratched at or around the Substance-P-administered site with its hind limb was counted. In the experiment, each group consisted of 8 mice. In cases where there was a statistically significant difference in the mean number of scratching between the solvent-administered group and the test drug-administered group, the test drug was judged to have an antipruritic effect. The results are shown in terms of the predicted administration dosage at which the number of scratching was reduced to half of that in the solvent-administered group (Table 5).

[2] = epidurally or intrathecally administered; cited from earlier work

| SMILES | ED50 (predicted administration dosage at which the number of scratching was reduced to half of that in the solvent-administered group) (Male ddY mice) | further results |
| --- | --- | --- |
| C=C1CC[C@@]2(O)[C@H]3Cc4ccc(O)c5c4[C@@]2(CCN3CC2CC2)[C@H]1O5 [nalmefene] |  | effect on severe pruritus in cholestasia with hepathopathy [1]: suppressed |
| O=C1c2ccccc2CN1[C@@H]1CC[C@@]2(O)[C@H]3Cc4ccc(O)c5c4[C@@]2(CCN3CC2CC2)[C@H]1O5 [Compound 5, 2-[(17-cyclopropylmethyl)-4,5α-epoxy-3,14-dihydroxy-morphinan-6β-yl]-2,3-dihydro-isoindole-1-one tartaric acid salt] | 0.015 mg/kg, sc |  |
| O=C1c2ccccc2S(=O)(=O)N1[C@@H]1CC[C@@]2(O)[C@H]3Cc4ccc(O)c5c4[C@@]2(CCN3CC2CC2)[C@H]1O5 [Compound 4, [N-(17-cyclopropylmethyl)-4,5α-epoxy-3,14-dihydroxy-morphinan-6β-yl]-O-sulfonebenzimide tartaric acid salt] | 0.0081 mg/kg, sc |  |
| O=C1c2ccccc2C(=O)N1[C@@H]1CC[C@@]2(O)[C@H]3Cc4ccc(O)c5c4[C@@]2(CCN3CC2CC2)[C@H]1O5 [Compound 1, N-[(17-cyclopropylmethyl)-4,5α-epoxy-3,14-dihydroxy-morphinan-6β-yl]-phthalimide hydrochloric acid salt] | 0.0034 mg/kg, sc |  |
| CN1CC[C@]23c4c5ccc(O)c4O[C@H]2[C@@H](O)C=C[C@H]3[C@H]1C5 [morphine] |  | induction of pruritus [2]: induced |
| O=C1C2=C(CCCC2)C(=O)N1[C@@H]1CC[C@@]2(O)[C@H]3Cc4ccc(O)c5c4[C@@]2(CCN3CC2CC2)[C@H]1O5 [Compound 3, N-[(17-cyclopropylmethyl)-4,5α-epoxy-3,14-dihydroxy-morphinan-6β-yl]-3,4,5,6-tetrahydrophthalimide tartaric acid salt] | 0.0033 mg/kg, sc |  |
| O=C1c2ccccc2C(=O)N1[C@@H]1CC[C@@]2(O)[C@H]3Cc4ccc(O)c5c4[C@@]2(CCN3CC2CC2)[C@H]1O5 [Compound 6, N-[(17-cyclopropylmethyl)-4,5α-epoxy-3,14-dihydroxy-morphinan-6β-yl]-phthalimide] | 0.0029 mg/kg, sc |  |
| CN(C(=O)c1ccccc1)[C@@H]1CC[C@@]2(O)[C@H]3Cc4ccc(O)c5c4[C@@]2(CCN3CC2CC2)[C@H]1O5 [Compound 7, 17-cyclopropylmethyl-4,5α-epoxy-3,14-dihydroxy-6β-(N-methylbenzamido)-morphinan hydrochloric acid salt, reference compound] | 0.55(Reference Example) mg/kg, sc |  |
| C=CCN1CC[C@]23c4c5ccc(O)c4O[C@H]2[C@H](N2C(=O)c4ccccc4C2=O)CC[C@@]3(O)[C@H]1C5 [Compound 2, N-[(17-allyl)-4,5α-epoxy-3,14-dihydroxy-morphinan-6β-yl]-phthalimide tartaric acid salt] | 0.32 mg/kg, sc |  |
